Publication PMC5509420 (Molecular Biology of the Cell, 2017)
Positions count from the first letter of the chain named.

Key:
Sse1 [1] = biological target: T1, Sse1 (Saccharomyces cerevisiae, UniProt P32589, F439L/L433A/M441A/N434P); assay: fluorescence polarization/anisotropy, saturation binding one-site fit
T1 sequence (P32589 2-693 L433A/N434P/F439L/M441A): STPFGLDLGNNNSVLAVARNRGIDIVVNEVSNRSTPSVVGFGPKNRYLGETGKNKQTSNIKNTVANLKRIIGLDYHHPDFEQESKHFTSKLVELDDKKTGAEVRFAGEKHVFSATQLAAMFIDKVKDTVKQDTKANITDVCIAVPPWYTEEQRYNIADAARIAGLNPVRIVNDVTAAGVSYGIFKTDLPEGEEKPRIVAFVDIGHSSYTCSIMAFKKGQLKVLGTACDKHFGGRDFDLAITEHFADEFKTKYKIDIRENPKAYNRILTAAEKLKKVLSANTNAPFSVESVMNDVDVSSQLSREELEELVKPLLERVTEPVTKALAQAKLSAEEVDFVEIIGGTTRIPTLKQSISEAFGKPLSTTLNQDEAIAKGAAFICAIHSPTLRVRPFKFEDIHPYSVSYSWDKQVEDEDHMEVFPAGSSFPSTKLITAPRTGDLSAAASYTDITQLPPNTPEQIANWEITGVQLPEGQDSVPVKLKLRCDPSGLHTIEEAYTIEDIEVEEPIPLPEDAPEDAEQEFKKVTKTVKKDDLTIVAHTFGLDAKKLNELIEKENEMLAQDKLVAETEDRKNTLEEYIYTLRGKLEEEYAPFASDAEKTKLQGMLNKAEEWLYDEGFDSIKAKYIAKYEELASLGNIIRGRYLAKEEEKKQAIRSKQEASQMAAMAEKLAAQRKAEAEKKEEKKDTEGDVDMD

Sse1 [2] = biological target: T2, Sse1 (Saccharomyces cerevisiae, UniProt P32589); assay: as above
T2 sequence (P32589 2-693): T1 sequence (P32589 2-693 L433A/N434P/F439L/M441A) with A432L, P433N, L438F, A440M

## O=C(NCCCCCCNc1ncnc2c1ncn2[C@@H]1O[C@H](COP(=O)(O)OP(=O)(O)OP(=O)(O)O)[C@@H](O)[C@H]1O)c1ccc2c(c1)C(=O)OC21c2ccc(O)cc2Oc2cc(O)ccc21 [N^6-(6-amino)hexyl-ATP-5-FAM]
Sse1 [1]
  Kd: 12.1 ± 1.9 µM
Sse1 [2]
  Kd: 8.6 ± 1.4 µM
